# In patent publication US9861680B2, “Immunomodulators” (BRISTOL-MYERS SQUIBB COMPANY, priority 2014, dated 2018):
# Numbered stars: 1 amine (or outer) side, 2 acyl side, 3 side chain; on linkers, the order of the positions; unused ones are H or OH. Bridge positions count the residues as written; N and C are the ends. Square brackets hold non-standard residues; d marks the D form. Peptide text beside a SMILES is read from it. N(2-hydroxyethyl)Ala = C[C@H](NCCO)C(=O)O; X3 = CCCC[C@@H](C(=O)[*:2])N(CCO)[*:1]; X2 = C[C@@H](C(=O)[*:2])N(CCN)[*:1]; X1 = O=C(CN(CCC(F)(F)F)[*:1])[*:2]; NBnAla = C[C@H](NCc1ccccc1)C(=O)O; Hyp = O=C(O)[C@@H]1C[C@@H](O)CN1; NMeNle = CCCC[C@H](NC)C(=O)O; NMeA = CN[C@@H](C)C(=O)O; Dab = NCC[C@H](N)C(=O)O
# Target: T1, PD-1-Ig binding to PD-L1-TVMV-His (PD-L1-His) (Homo sapiens, UniProt Q9NZQ7)
# T1 construct: hPDL1(19-239)-TVMV-His; made in house; host or cells: HEK293T
# Assay: PD-1/PD-L1 Homogenous Time-Resolved Fluorescence (HTRF) binding assay
# Settings: numeric value; PD-L1-His 10 nM, PD-1-Ig 20 nM
# From the text: Methods for Testing the Ability of Macrocyclic Peptides to Compete for the Binding of Pd-1 to Pd-L1 Using Homogenous Time-Resolved Fluorescence (HTRF) Binding Assays
# The ability of the macrocyclic peptides of the present disclosure to bind to PD-L1 was investigated using a PD-1/PD-L1 Homogenous Time-Resolved Fluorescence (HTRF) binding assay.
# Homogenous Time-Resolved Fluorescence (HTRF) Assays of Binding of Soluble PD-1 to Soluble PD-L1. Soluble PD-1 and soluble PD-L1 refers to proteins with carboxyl-end truncations that remove the transmembrane-spanning regions and are fused to heterologous sequences, specifically the Fc portion of the human immunoglobuling G sequence (Ig) or the hexahistidine epitope tag (His). All binding studies were performed in an HTRF assay buffer consisting of dPBS supplemented with 0.1% (w/v) bovine serum albumin and 0.05% (v/v) Tween-20. For the PD-1-Ig/PD-L1-His binding assay, inhibitors were pre-incubated with PD-L1-His (10 nM final) for 15 m in 4 μl of assay buffer, followed by addition of PD-1-Ig (20 nM final) in 1 μl of assay buffer and further incubation for 15 m. PD-L1 fusion proteins from either human, cynomologous macaques, mouse, or other species were used. HTRF detection was achieved using europium crypate-labeled anti-Ig monoclonal antibody (1 nM final) and allophycocyanin (APC) labeled anti-His monoclonal antibody (20 nM final). Antibodies were diluted in HTRF detection buffer and 5 μl was dispensed on top of binding reaction. The reaction was allowed to equilibrate for 30 minutes and signal (665 nm/620 nm ratio) was obtained using an EnVision fluorometer. Additional binding assays were established between PD-1-Ig/PD-L2-His (20 and 5 nM, respectively), CD80-His/PD-L1-Ig (100 and 10 nM, respectively) and CD80-His/CTLA4-Ig (10 and 5 nM, respectively). Binding/competition studies between biotinylated Compound No. 71 and human PD-L1-His were performed as follows. Macrocyclic peptide inhibitors were pre-incubated with PD-L1-His (10 nM final) for 60 minutes in 4 μl of assay buffer followed by addition of biotinylated Compound No. 71 (0.5 nM final) in 1 μl of assay buffer. Binding was allowed to equilibrate for 30 minutes followed by addition of europium crypated labeled Streptavidin (2.5 pM final) and APC-labeled anti-His (20 nM final) in 5 μl of HTRF buffer. The reaction was allowed to equilibrate for 30 m and signal (665 nm/620 nm ratio) was obtained using an EnVision fluorometer.
# Recombinant Proteins. Carboxyl-truncated human PD-1 (amino acids 25-167) with a C-terminal human Ig epitope tag [hPD-1 (25-167)-3S-IG] and human PD-L1 (amino acids 18-239) with a C-terminal His epitope tag [hPD-L1(19-239)-tobacco vein mottling virus protease cleavage site (TVMV)-His] were expressed in HEK293T cells and purified sequentially by recombinant Protein A affinity chromatography and size exclusion chromatography. Human PD-L2-His (Sino Biologicals), CD80-His (Sino Biologicals), CTLA4-Ig (RnD Systems) were all obtained through commercial sources.
# Ranges are as follows: A=0.10-10 μM; B=0.01-0.099 μM; C=0.005-0.0099 μM.
# T1 sequence (Q9NZQ7 with tags, fused parts or gaps): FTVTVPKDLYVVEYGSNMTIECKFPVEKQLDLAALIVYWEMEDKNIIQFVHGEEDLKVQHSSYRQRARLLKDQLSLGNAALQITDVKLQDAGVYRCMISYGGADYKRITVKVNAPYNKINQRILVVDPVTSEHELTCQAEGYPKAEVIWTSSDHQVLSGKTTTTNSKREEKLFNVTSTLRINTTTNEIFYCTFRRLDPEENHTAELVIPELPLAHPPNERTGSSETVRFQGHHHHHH
row,IC50 [nM],SMILES
1,2360,CCCC[C@H]1C(=O)N[C@@H](CC(C)C)C(=O)N[C@H](C(=O)NCC(N)=O)CSCC(=O)N[C@@H](Cc2ccc(O)cc2)C(=O)N(C)[C@@H](C)C(=O)N[C@@H](CC(N)=O)C(=O)N2CCC[C@H]2C(=O)N[C@@H](Cc2cnc[nH]2)C(=O)N[C@@H](CCC(=O)O)C(=O)N2C[C@H](O)C[C@H]2C(=O)N[C@@H](Cc2c[nH]c3ccccc23)C(=O)N[C@@H](CCN)C(=O)N[C@@H](Cc2c[nH]c3ccccc23)C(=O)N(CCC(F)(F)F)CC(=O)N1C [Example 3038] ({CH2CO}-Y[NMeA]NPHE[Hyp]W[Dab]W[X1][NMeNle]LCG-NH2; thioether N-14)

# Same assay, conditions: range class; PD-L1-His 10 nM, PD-1-Ig 20 nM
row,IC50 [nM],SMILES
1,100 to 10000,CCCC[C@H]1C(=O)N[C@@H](CC(C)C)C(=O)N[C@H](C(=O)NCC(N)=O)CSCC(=O)N[C@@H](Cc2ccc(O)cc2)C(=O)N(C)[C@@H](C)C(=O)N[C@@H](CC(N)=O)C(=O)N2CCC[C@H]2C(=O)N[C@@H](Cc2cnc[nH]2)C(=O)N[C@@H](CCC(=O)O)C(=O)N2C[C@H](O)C[C@H]2C(=O)N[C@@H](Cc2c[nH]c3ccccc23)C(=O)N[C@@H](CCN)C(=O)N[C@@H](Cc2c[nH]c3ccccc23)C(=O)N(Cc2ccccc2)[C@@H](C)C(=O)N1C [Example 3029] ({CH2CO}-Y[NMeA]NPHE[Hyp]W[Dab]W[NBnAla][NMeNle]LCG-NH2; thioether N-14)
2,10 to 99,CCCC[C@H]1C(=O)N[C@@H](CC(C)C)C(=O)N[C@H](C(=O)NCC(N)=O)CSCC(=O)N[C@@H](Cc2ccc(O)cc2)C(=O)N(C)[C@@H](C)C(=O)N[C@@H](CC(N)=O)C(=O)N2CCC[C@H]2C(=O)N[C@@H](Cc2cnc[nH]2)C(=O)N[C@@H](CCC(=O)O)C(=O)N2C[C@H](O)C[C@H]2C(=O)N[C@@H](Cc2c[nH]c3ccccc23)C(=O)N[C@@H](CCN)C(=O)N[C@@H](Cc2c[nH]c3ccccc23)C(=O)N(CCO)[C@@H](CCCC)C(=O)N1C [Example 3030] ({CH2CO}-Y[NMeA]NPHE[Hyp]W[Dab]W[X3][NMeNle]LCG-NH2; thioether N-14)
3,10 to 99,CCCC[C@H]1C(=O)N(C)[C@@H](CCCC)C(=O)N[C@@H](CC(C)C)C(=O)N[C@H](C(=O)NCC(N)=O)CSCC(=O)N[C@@H](Cc2ccc(O)cc2)C(=O)N(CCN)[C@@H](C)C(=O)N[C@@H](CC(N)=O)C(=O)N2CCC[C@H]2C(=O)N[C@@H](Cc2cnc[nH]2)C(=O)N[C@@H](CCC(=O)O)C(=O)N2C[C@H](O)C[C@H]2C(=O)N[C@@H](Cc2c[nH]c3ccccc23)C(=O)N[C@@H](CCN)C(=O)N[C@@H](Cc2c[nH]c3ccccc23)C(=O)N1C [Example 3032] ({CH2CO}-Y[X2]NPHE[Hyp]W[Dab]W[NMeNle][NMeNle]LCG-NH2; thioether N-14)
4,100 to 10000,CCCC[C@H]1C(=O)N[C@@H](CC(C)C)C(=O)N[C@H](C(=O)NCC(N)=O)CSCC(=O)N[C@@H](Cc2ccc(O)cc2)C(=O)N(C)[C@@H](C)C(=O)N[C@@H](CC(N)=O)C(=O)N2CCC[C@H]2C(=O)N[C@@H](Cc2cnc[nH]2)C(=O)N[C@@H](CCC(=O)O)C(=O)N2C[C@H](O)C[C@H]2C(=O)N[C@@H](Cc2c[nH]c3ccccc23)C(=O)N[C@@H](CCN)C(=O)N[C@@H](Cc2c[nH]c3ccccc23)C(=O)N(CCO)[C@@H](C)C(=O)N1C [Example 3033] ({CH2CO}-Y[NMeA]NPHE[Hyp]W[Dab]W[N(2-hydroxyethyl)Ala][NMeNle]LCG-NH2; thioether N-14)
5,100 to 10000,CCCC[C@H]1C(=O)N[C@@H](CC(C)C)C(=O)N[C@H](C(=O)NCC(N)=O)CSCC(=O)N[C@@H](Cc2ccc(O)cc2)C(=O)N(C)[C@@H](C)C(=O)N[C@@H](CC(N)=O)C(=O)N2CCC[C@H]2C(=O)N[C@@H](Cc2cnc[nH]2)C(=O)N[C@@H](CCC(=O)O)C(=O)N2C[C@H](O)C[C@H]2C(=O)N[C@@H](Cc2c[nH]c3ccccc23)C(=O)N[C@@H](CCN)C(=O)N[C@@H](Cc2c[nH]c3ccccc23)C(=O)N(CC(=O)O)CC(=O)N1C [Example 3037]
